In patent US20240182445A1 (ONO PHARMACEUTICAL CO., LTD., priority 2019, published 2024):

Biological target: T1, human TREK-1 (Homo sapiens, UniProt O95069)
T1 construct: expressed in transfected cells
T1 sequence (O95069 1-426): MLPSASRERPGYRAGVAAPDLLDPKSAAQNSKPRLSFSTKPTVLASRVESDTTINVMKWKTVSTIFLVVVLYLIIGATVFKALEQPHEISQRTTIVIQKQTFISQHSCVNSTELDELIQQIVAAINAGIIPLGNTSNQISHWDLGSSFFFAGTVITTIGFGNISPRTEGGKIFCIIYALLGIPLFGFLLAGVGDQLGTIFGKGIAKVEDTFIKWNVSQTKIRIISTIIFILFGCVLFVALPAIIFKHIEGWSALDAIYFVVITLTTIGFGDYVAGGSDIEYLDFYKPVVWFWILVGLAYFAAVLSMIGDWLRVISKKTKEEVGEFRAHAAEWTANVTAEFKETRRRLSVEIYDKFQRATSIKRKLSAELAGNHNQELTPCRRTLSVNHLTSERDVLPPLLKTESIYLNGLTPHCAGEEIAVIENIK
Assay: TREK-1 Thallium (Tl+) flux assay, Method 1
Format: cell-based
Details: for IC50: TREK-1 Thallium (Tl+) flux assay, Method 1; for inhibition at 30 µM: read-out: Tl^+ Assay % inhibition at 30 uM (Minus value indicates activation of TREK-1), CHO-K1 cells stably expressing human TREK-1, minus = activation
Outline: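 CHO-K1 cells stably expressing human TREK-1, loaded with Thallos dye, received compound or 0.3% DMSO vehicle for 10 min before thallium stimulus buffer. ΔRatio is fluorescence at 25 s after thallium addition over mean pre-addition fluorescence; % inhibition calculated from it.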

| Compound | IC50 [µM] | inhibition at 30 µM [%] |
| --- | --- | --- |
| Cc1cc(-c2cnn(-c3ccccc3)c2)cnc1NC(=O)c1c(Cl)cnn1C1CCN(C(=O)OC(C)(C)C)CC1 [Compound 413, tert-butyl 4-(4-chloro-5-((3-methyl-5-(1-phenyl-1H-pyrazol-4-yl)pyridin-2-yl)carbamoyl)-1H-pyrazol-1-yl)piperidine-1-carboxylate] | 3.53 | – |
| CC(=O)N1CCC(n2ncc(Cl)c2C(=O)Nc2ncc(-c3ccc(OC(F)(F)F)cc3)cc2C)CC1 [Compound 414, 1-(1-acetylpiperidin-4-yl)-4-chloro-N-(3-methyl-5-(4-(trifluoromethoxy)phenyl)pyridin-2-yl)-1H-pyrazole-5-carboxamide] | 3.62 | – |
| CCCCOc1ccc(-c2cnc(NC(=O)c3c(Cl)cnn3C3CCN(C(C)=O)CC3)c(C)c2)cc1 [Compound 416, 1-(1-acetylpiperidin-4-yl)-N-(5-(4-butoxyphenyl)-3-methylpyridin-2-yl)-4-chloro-1H-pyrazole-5-carboxamide] | 4.07 | – |
| Cc1cc(OCc2ccccc2)ccc1NC(=O)c1c(Cl)cnn1CC1CN(C(=O)C2CC2C)CCO1 (centres unmarked) [Compound 417, N-(4-(benzyloxy)-2-methylphenyl)-4-chloro-1-((4-(2-methylcyclopropane-1-carbonyl)morpholin-2-yl)methyl)-1H-pyrazole-5-carboxamide] | 4.16 | – |
| CC(=O)N1CCC(n2ncc(Cl)c2C(=O)Nc2ncc(-c3ccc(CC(C)C)cc3)cc2C)CC1 [Compound 418, 1-(1-acetylpiperidin-4-yl)-4-chloro-N-(5-(4-isobutylphenyl)-3-methylpyridin-2-yl)-1H-pyrazole-5-carboxamide] | 4.17 | – |
| COc1ncc(-c2cnc(NC(=O)c3c(Cl)cnn3C3CCN(C(=O)OC(C)(C)C)CC3)c(C)c2)cn1 [Compound 419, tert-butyl 4-(4-chloro-5-((5-(2-methoxypyrimidin-5-yl)-3-methylpyridin-2-yl)carbamoyl)-1H-pyrazol-1-yl)piperidine-1-carboxylate] | 4.19 | – |
| Cc1cc(OCc2ccccc2)ccc1NC(=O)c1c(Cl)cnn1CC1CN(C(=O)C(C)C)CCO1 (centres unmarked) [Compound 420, N-(4-(benzyloxy)-2-methylphenyl)-4-chloro-1-((4-isobutyrylmorpholin-2-yl)methyl)-1H-pyrazole-5-carboxamide] | 4.38 | – |
| CC(=O)N1CCC(n2ncc(Cl)c2C(=O)Nc2ncc(-c3ccc(OC(F)F)cc3)cc2C)CC1 [Compound 421, 1-(1-acetylpiperidin-4-yl)-4-chloro-N-(5-(4-(difluoromethoxy)phenyl)-3-methylpyridin-2-yl)-1H-pyrazole-5-carboxamide] | 4.4 | – |
| CC(=O)N1CCC(n2ncc(Cl)c2C(=O)Nc2ncc(-c3cnc4ccccc4c3)cc2C)CC1 [Compound 422, 1-(1-acetylpiperidin-4-yl)-4-chloro-N-(3-methyl-5-(quinolin-3-yl)pyridin-2-yl)-1H-pyrazole-5-carboxamide] | 4.46 | – |
| CC(=O)N1CCOC(Cn2ncc(Cl)c2C(=O)Nc2ccc(OCc3ccccc3)cc2C)C1 (centres unmarked) [Compound 423, 1-((4-acetylmorpholin-2-yl)methyl)-N-(4-(benzyloxy)-2-methylphenyl)-4-chloro-1H-pyrazole-5-carboxamide] | 4.82 | – |
| Cc1cc(OCc2ccccc2)ccc1NC(=O)c1c(Cl)cnn1CC1CN(C(=O)C2CCC2)CCO1 (centres unmarked) [Compound 424, N-(4-(benzyloxy)-2-methylphenyl)-4-chloro-1-((4-(cyclobutanecarbonyl)morpholin-2-yl)methyl)-1H-pyrazole-5-carboxamide] | 4.85 | – |
| COc1ncc(-c2cnc(NC(=O)c3c(Cl)cnn3C3CCN(C(C)=O)CC3)c(C)c2)cc1Cl [Compound 425, 1-(1-acetylpiperidin-4-yl)-4-chloro-N-(5′-chloro-6′-methoxy-5-methyl-[3,3′-bipyridin]-6-yl)-1H-pyrazole-5-carboxamide] | 5.05 | – |
| CC(=O)N1CCC(n2ncc(Cl)c2C(=O)Nc2ncc(-c3cc(F)c(Cl)c(F)c3)cc2C)CC1 [Compound 426, 1-(1-acetylpiperidin-4-yl)-4-chloro-N-(5-(4-chloro-3,5-difluorophenyl)-3-methylpyridin-2-yl)-1H-pyrazole-5-carboxamide] | 5.12 | – |
| CC(=O)N1CCC(n2ncc(Cl)c2C(=O)Nc2ncc(-c3ccc(C(F)(F)F)cc3)cc2C)CC1 [Compound 427, 1-(1-acetylpiperidin-4-yl)-4-chloro-N-(3-methyl-5-(4-(trifluoromethyl)phenyl)pyridin-2-yl)-1H-pyrazole-5-carboxamide] | 5.21 | – |
| COc1c(F)cc(-c2cnc(NC(=O)c3c(Cl)cnn3C3CCN(C(C)=O)CC3)c(C)c2)cc1F [Compound 428, 1-(1-acetylpiperidin-4-yl)-4-chloro-N-(5-(3,5-difluoro-4-methoxyphenyl)-3-methylpyridin-2-yl)-1H-pyrazole-5-carboxamide] | 5.31 | – |
| Cc1cc(OCc2ccccc2)ccc1NC(=O)c1c(Cl)cnn1CC1CN(C(=O)CC(C)C)CCO1 (centres unmarked) [Compound 429, N-(4-(benzyloxy)-2-methylphenyl)-4-chloro-1-((4-(3-methylbutanoyl)morpholin-2-yl)methyl)-1H-pyrazole-5-carboxamide] | 5.52 | – |
| Cc1cc(OCc2ccccc2)ccc1NC(=O)c1c(Cl)cnn1C1CCN(C(=O)OC(C)(C)C)CC1 [Compound 430, tert-butyl 4-(5-((4-(benzyloxy)-2-methylphenyl)carbamoyl)-4-chloro-1H-pyrazol-1-yl)piperidine-1-carboxylate] | 6.35 | – |
| CCOc1ccc(-c2cnc(NC(=O)c3c(Cl)cnn3C3CCN(C(=O)OC(C)(C)C)CC3)c(C)c2)cc1 [Compound 431, tert-butyl 4-(4-chloro-5-((5-(4-ethoxyphenyl)-3-methylpyridin-2-yl)carbamoyl)-1H-pyrazol-1-yl)piperidine-1-carboxylate] | 6.4 | – |
| Cc1cc(OCc2ccccc2)ccc1NC(=O)c1c(Cl)cnn1CC1CN(C(=O)C2CC2)CCO1 (centres unmarked) [Compound 432, N-(4-(benzyloxy)-2-methylphenyl)-4-chloro-1-((4-(cyclopropanecarbonyl)morpholin-2-yl)methyl)-1H-pyrazole-5-carboxamide] | 6.45 | – |
| CC(=O)N1CC2(CC(n3ncc(Cl)c3C(=O)Nc3ccc(OCc4ccccc4)cc3C)C2)C1 [Compound 433, 1-(2-acetyl-2-azaspiro[3.3]heptan-6-yl)-N-(4-(benzyloxy)-2-methylphenyl)-4-chloro-1H-pyrazole-5-carboxamide] | 6.89 | – |
| COc1ccc(-c2cnc(NC(=O)c3c(Cl)cnn3C3CCN(C(C)=O)CC3)c(C)c2)cc1Cl [Compound 434, 1-(1-acetylpiperidin-4-yl)-4-chloro-N-(5-(3-chloro-4-methoxyphenyl)-3-methylpyridin-2-yl)-1H-pyrazole-5-carboxamide] | 7.43 | – |
| CCC(=O)N1CCOC(Cn2ncc(Cl)c2C(=O)Nc2ccc(OCc3ccccc3)cc2C)C1 (centres unmarked) [Compound 435] | 8.11 | – |
| Cc1cc(-c2cnn(-c3ccccc3F)c2)cnc1NC(=O)c1c(Cl)cnn1C1CCN(C(=O)OC(C)(C)C)CC1 [Compound 436, tert-butyl 4-(4-chloro-5-((5-(1-(2-fluorophenyl)-1H-pyrazol-4-yl)-3-methylpyridin-2-yl)carbamoyl)-1H-pyrazol-1-yl)piperidine-1-carboxylate] | 9.3 | – |
| COc1cc(-c2cnc(NC(=O)c3c(Cl)cnn3C3CCN(C(=O)OC(C)(C)C)CC3)c(C)c2)ccn1 [Compound 437, tert-butyl 4-(4-chloro-5-((2′-methoxy-5-methyl-[3,4′-bipyridin]-6-yl)carbamoyl)-1H-pyrazol-1-yl)piperidine-1-carboxylate] | 9.96 | – |
| CC(=O)N1CCC(CCn2cc(Cl)c(C(=O)Nc3ncc(C#Cc4cccc(F)c4)cc3C)n2)CC1 [Compound 439, 1-(2-(1-acetylpiperidin-4-yl)ethyl)-4-chloro-N-(5-((3-fluorophenyl)ethynyl)-3-methylpyridin-2-yl)-1H-pyrazol-3-carboxamide] | – | -163 |
| CC(=O)N1CCC(CCn2cc(Cl)c(C(=O)Nc3ncc(C#Cc4cccs4)cc3C)n2)CC1 [Compound 440, 1-(2-(1-actetylpiperidin-4-yl)ethyl)-4-chloro-N-(3-methyl-5-(thiophen-2-ylethynyl)pyridin-2-yl)-1H-pyrazole-3-carboxamide] | – | -135 |
| Cc1cc(C#Cc2ccccc2F)cnc1NC(=O)c1nn(CCC2CCN(C(=O)C3CC3)CC2)cc1Cl [Compound 441, 4-chloro-1-(2-(1-(cyclopropanecarbonyl)piperidin-4-yl)ethyl)-N-(5-((2-fluorophenyl)ethynyl)-3-methylpyridin-2-yl)-1H-pyrazole-3-carboxamide] | – | -123 |
| CC(=O)N1CCC(CCn2cc(Cl)c(C(=O)Nc3ncc(C#Cc4ccc(F)cc4)cc3C)n2)CC1 [Compound 442, 1-(2-(1-acetylpiperidin-4-yl)ethyl)-4-chloro-N-(5-((4-fluorophenyl)ethynyl)-3-methylpyridin-2-yl)-1H-pyrazole-3-carboxamide] | – | -118 |
| Cc1cc(C#Cc2ccccc2)cnc1NC(=O)c1nn(C2CCOCC2)cc1Cl [Compound 443, 4-chloro-N-(3-methyl-5-(phenylethynyl)pyridin-2-yl)-1-(tetrahydro-2H-pyran-4-yl)-1H-pyrazole-3-carboxamide] | – | -116 |
